# Legend:
# E. coli B nitroreductase [1] = molecular target: T1, E. coli B nitroreductase (Escherichia coli, UniProt P38489); assay: Formation of actinomycin D by the nitroreductase upon prodrug V (HPLC); assay type: biochemical; conditions: V 100 μM, 500 μM NADH, enzyme 2 μg/ml, pH7, 37° C.
# T1 construct: endogenous in cells; host or cells: E. coli B cell paste; endogenous enzyme purified by Phenyl-Sepharose and Q-Sepharose chromatography, not recombinant
# Description: Disappearance of the prodrug N-4-nitro-benzyloxycarbonyl-actinomycin D (V) and formation of actinomycin D during incubation with the E. coli B nitroreductase of Example 1 is shown in FIG. 2.
# V79 cells [2] = assay: Survival (colony forming ability) of V79 cells with enzyme-activated prodrugs (Table 8); assay type: cell-based
# Description: (§1) Generation of cytotoxicity by the action of the E. coli nitroreductase of Example 1 upon the prodrugs 4-[bis(2-chloroethyl)amino]phenylcarbamic acid 4'-nitrobenzyl ester (I where R^1 NH2 =III) and N-4-nitrobenzyloxy-carbonyl-actinomycin D (V) are shown in Table 8.
# (§2) The effect of enzyme-activated prodrugs on the survival of V79
# (§3) cells. 1 ml volumes of V79 cells (2 × 10^5 /ml) were incubated
# (§4) with prodrug, 500 μM NADH, and 10 μg/ml enzyme. After a 2 hour
# (§5) incubation at 37° C., the cells were harvested and assayed for
# (§6) their colony forming ability, and the supernatant assayed for
# (§7) the concentration of remaining prodrug by HPLC.
# [3] = In vivo toxicity of prodrug in mice; conditions: for Weight as % of Day 0, Day 2 / Weight as % of Day 0, Day 3 / Weight as % of Day 0, Day 7 / Weight as % of Day 0, Day 9: mice
# Description: The actinomycin D prodrug (AMDPD) of formula V was tested for toxicity in mice. Groups of 3 mice were given 1, 10 or 100 mg/kg body weight i.p. of AMPD, and two further groups of 3 mice were given 1 and 10 mg/kg body weight i.p. of actinomycin D (AMD) dissolved in arachis oil. A further group of 3 mice were untreated, and a final group of 3 mice were given arachis oil i.p. only.
# The body weight of the mice were monitored over 9 days. All mice treated with 10 mg/kg of AMD were dead by day 1. […] In practice, the toxicity of AMDPD is likely to be even lower, since the preparation of AMDPD used contains about 1% unconverted AMD.
# E. coli nitroreductase [4] = molecular target: T2, E. coli nitroreductase (Escherichia coli, UniProt P38489); assay: % drug reduction in the V79 incubations, remaining prodrug by HPLC (Table 8); assay type: biochemical
# T2 construct: endogenous in cells; host or cells: E. coli B cell paste; endogenous enzyme purified by Phenyl-Sepharose and Q-Sepharose chromatography, not recombinant
# T2 sequence (P38489 whole entry): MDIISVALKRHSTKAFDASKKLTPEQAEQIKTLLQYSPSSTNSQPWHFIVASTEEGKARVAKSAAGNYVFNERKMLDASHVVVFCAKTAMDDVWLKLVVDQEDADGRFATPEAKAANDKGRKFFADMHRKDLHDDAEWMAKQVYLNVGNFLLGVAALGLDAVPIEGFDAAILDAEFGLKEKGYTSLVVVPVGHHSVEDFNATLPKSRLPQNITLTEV
# Description: as §1, §2, §3, §4, §5, §6, §7
# E. coli B nitroreductase [5] = molecular target: T1, E. coli B nitroreductase; assay: Enzyme kinetic and inhibition studies; assay type: biochemical; conditions: saturating conditions
# Description: Protein concentration was determined using the a conventional protein assay (Bio-Rad) calibrated against bovine serum albumin.
# [6] = molecular target: T3, Walker NAD(P)H dehydrogenase (quinone) EC 1.6.99.2 (Rattus norvegicus, UniProt P05982); assay: Enzymatic reduction of CB 1954 followed by HPLC; assay type: biochemical; conditions: reduction of 50 μM of CB 1954
# T3 construct: the enzyme isolated from the Walker tumour, EC.1.6.99.2; from tissue; host or cells: Walker tumour (Walker cell)
# T3 sequence (P05982 2-274 limits assumed): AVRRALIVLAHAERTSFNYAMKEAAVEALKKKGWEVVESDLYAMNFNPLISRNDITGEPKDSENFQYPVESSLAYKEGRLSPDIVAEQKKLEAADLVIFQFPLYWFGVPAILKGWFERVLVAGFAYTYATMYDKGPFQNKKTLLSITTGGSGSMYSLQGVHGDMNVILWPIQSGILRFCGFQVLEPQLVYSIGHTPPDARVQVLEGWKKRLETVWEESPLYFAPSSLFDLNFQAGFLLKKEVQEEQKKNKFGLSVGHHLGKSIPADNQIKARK
# Description: Enzymatic reduction of CB 1954. […] At various times aliquots (10 μl) were injected onto a Partisphere SCX (110×4.7 mm) HPLC column and eluted isocratically (2 ml/min) with 100 mM NaH2 PO4.
# (§8) The eluate was continuously monitored for adsorption at 310, 260 and 360 nm and the spectra of eluting components recorded using a diode-array detector. Samples (0.5 ml) were collected and the tritium activity of each determined by liquid scintillation counting. This separation system could resolve all the expected reduction products.
# (§9) To confirm further the identity of any reduction products, the above reduction mixture was also injected onto an ODS-5 reverse phase HPLC column and eluted (1 ml/min) with a methanol gradient (0-30% linear over 30 min, 30-100% linear over 10 min.) in 0.1 M sodium phosphate buffer (pH 7).
# E. coli nitroreductase [7] = molecular target: T2, E. coli nitroreductase; assay: Substrate specificity: relative rate of NADH oxidation by HPLC (Table 5); assay type: biochemical; conditions: relative to CB 1954; 37° C. in air, NADH 500 μM, substrate 100 μM
# Description: The ability of the E. coli nitroreductase of the invention to reduce nitro-compounds other than CB 1954 was determined by HPLC by following the decrease in the peak area of NADH resulting from its oxidation. The experiments were carried out as above but the aliquots were injected onto a Partisphere SAX (110×4.7 mm) HPLC column and eluted isocratically (1 ml/min) with 75 mM NaH2 PO4.
# The relative rates of reduction of various nitrobenzamides and
# nitrobenzenes with E. coli nitroreductase enzyme. Reduction
# rates were determined by the resulting oxidation of NADH. All
# reactions were carried out at 37° C. in air, with NADH (500
# electron donor, at an initial substrate concentration of 100 μM.
# E. coli nitroreductase [8] = molecular target: T2, E. coli nitroreductase; assay: Enzymatic reduction of CB 1954 followed by HPLC; assay type: biochemical, E. coli B
# Description: Enzymatic reduction of CB 1954. CB 1954 (100 μM and also containing [U-^3 H] C.B 1954 at 1.6×10^5 dpm per nmole), NADH or NAD(P)H (500 μM) were incubated with the active enzyme obtained as described in Example 1, (generally 2 μg/ml E. coli nitroreductase or 35 μg/ml Walker NAD(P)H dehydrogenase (quinone) EC 1.6.99.2) in 10 mM sodium phosphate buffer (pH 7) under either air or helium. At various times aliquots (10 μl) were injected onto a Partisphere SCX (110×4.7 mm) HPLC column and eluted isocratically (2 ml/min) with 100 mM NaH2 PO4.
# as §8, §9
# V79 cells [9] = assay: Survival (colony-forming ability) of V79 cells treated with CB 1954 in the presence of E. coli B nitroreductase (Table 4); assay type: cell-based, Hamster
# Description: (§10) E. coli B nitroreductase. All treatments were for 2 hours at 37°
# (§11) cells were then plated out for their resulting colony-forming ability.
# (§12) nitroreductase concentration was 2 μg/ml and NADH was used as a […]
# E. coli B nitroreductase [10] = molecular target: T1, E. coli B nitroreductase; assay: % drug reduction in the V79 incubations (Table 4); assay type: biochemical
# Description: The effect of CB 1954 on the survival of V79 cells in the presence of the
# as §10, §11, §12
# [11] = NR 10 μg/ml + 1 μM prodrug + 500 μM NADH
# [12] = NR 2 μg/ml + 50 μM CB 1954, no NADH
# [13] = NR 2 μg/ml + CB 1954 + 500 μM NADH
# T1 sequence (P38489 whole entry): as the sequence (P38489 whole entry) above
smiles,measurement,setting,value
"Cc1c2oc3c(C)ccc(C(=O)NC4C(=O)NC(C(C)C)C(=O)N5CCCC5C(=O)N(C)CC(=O)N(C)C(C(C)C)C(=O)OC4C)c3nc-2c(C(=O)NC2C(=O)NC(C(C)C)C(=O)N3CCCC3C(=O)N(C)CC(=O)N(C)C(C(C)C)C(=O)OC2C)c(NC(=O)OCc2ccc([N+](=O)[O-])cc2)c1=O (stereo not drawn) [V, N-4-Nitrobenzyloxycarbonyl-actinomycin D]",release of actinomycin D from the prodrug,E. coli B nitroreductase [1],Only when the enzyme was present was actinomycin D released
same,% SURVIVAL,V79 cells [2]; 1 μM prodrug alone,98.3%
same,% SURVIVAL,V79 cells [2]; 10 μM prodrug alone,39.3%
same,% SURVIVAL,V79 cells [2]; [11],27.4%
same,"Weight as % of Day 0, Day 2",[3]; dose 1.0 mg/kg i.p.,102%
same,"Weight as % of Day 0, Day 3",[3]; dose 1.0 mg/kg i.p.,101%
same,"Weight as % of Day 0, Day 7",[3]; dose 1.0 mg/kg i.p.,101%
same,"Weight as % of Day 0, Day 9",[3]; dose 1.0 mg/kg i.p.,103%
same,"Weight as % of Day 0, Day 2",[3]; dose 10 mg/kg i.p.,109%
same,"Weight as % of Day 0, Day 3",[3]; dose 10 mg/kg i.p.,105%
same,"Weight as % of Day 0, Day 7",[3]; dose 10 mg/kg i.p.,108%
same,"Weight as % of Day 0, Day 9",[3]; dose 10 mg/kg i.p.,110%
same,deaths,"[3]; dose 100 mg/kg i.p., groups of 3 mice, Day 2",1 dead
same,"Weight as % of Day 0, Day 2",[3]; dose 100 mg/kg i.p.,96.4%
same,"Weight as % of Day 0, Day 3",[3]; dose 100 mg/kg i.p.,95.6%
same,"Weight as % of Day 0, Day 7",[3]; dose 100 mg/kg i.p.,95%
same,"Weight as % of Day 0, Day 9",[3]; dose 100 mg/kg i.p.,96%
same,% DRUG REDUCTION,E. coli nitroreductase [4]; 1 μM prodrug alone,< 1.0%
same,% DRUG REDUCTION,E. coli nitroreductase [4]; 10 μM prodrug alone,< 1.0%
same,% DRUG REDUCTION,E. coli nitroreductase [4]; [11],90.5%
same,% DRUG REDUCTION,E. coli nitroreductase [4]; NR 10 μg/ml + 10 μM prodrug + 500 μM NADH,93%
"NC(=O)c1cc(N2CC2)c([N+](=O)[O-])cc1[N+](=O)[O-] [CB 1954, 5-(aziridin-1-yl)-2,4-dinitrobenzamide]",kcat for CB 1954 reduction higher for the E. coli nitroreductase than Walker enzyme,E. coli B nitroreductase [5],90 fold
same,4-hydroxylamine formed,[6],50 µM
same,RELATIVE RATE OF NADH OXIDATION NR,E. coli nitroreductase [7],1.0
same,rate of reduction of CB 1954 or product formation,"E. coli nitroreductase [8]; co-factor NAD(P)H or NADH, under helium",the same
same,"nitroreductase more active per mg protein than NAD(P)H dehydrogenase (quinone), initial rates of 4-hydroxylamine formation",E. coli nitroreductase [8]; standard conditions,31.2 fold
same,nitroreductase more active than NAD(P)H dehydrogenase (quinone) by CB 1954 reduction,E. coli nitroreductase [8]; standard conditions,62 fold
same,4-hydroxylamine formed,E. coli nitroreductase [8]; when 67 μM of CB 1954 was reduced,33 µM
same,% SURVIVAL,"V79 cells [9]; 50 μM CB 1954, 2 hours 37° C.",100%
same,% SURVIVAL,"V79 cells [9]; NADH + CB 1954, no enzyme, 2 hours 37° C.",41%
same,% SURVIVAL,V79 cells [9]; [12],99%
same,% SURVIVAL,V79 cells [9]; [13],0.024%
same,% DRUG REDUCTION,E. coli B nitroreductase [10]; 50 μM CB 1954 alone,< 1.0%
same,% DRUG REDUCTION,"E. coli B nitroreductase [10]; NADH + CB 1954, no enzyme",< 1.0%
same,% DRUG REDUCTION,E. coli B nitroreductase [10]; [12],< 1.0%
same,% DRUG REDUCTION,E. coli B nitroreductase [10]; [13],72%

# — patent publication US5977065A, “Bacterial nitroreductase for the reduction of CB1954 and analogues thereof to a cytotoxic form” (Cancer Research Campaign Technology Limited, priority 1991, dated 1999)
